Experimental data as given in paper PMC11864979, “First-in-class ultralong-target-residence-time p38α inhibitors as a mitosis-targeted therapy for colorectal cancer” (Nature Cancer, 2025).
Several values for one entry are separate records, joined by “and”; a condition that tells them apart may be missing. Identical values can stand only once.

How the values were obtained:
KAP^2D cells [1] = assay: P-H3^S10 / α-tubulin staining, mitotic phases in KAP^2D cells; type: cell-based, mouse; details: replicates, experiment and repetition
Method: Immunofluorescence staining on cells and organoids was performed on glass coverslips or tissue culture chambers (Sarstedt). Organoids were plated in medium containing 10% Matrigel or Cultrex BME. The cultures were fixed with 4% paraformaldehyde and stained with specific antibodies and DAPI (Vector Labs). All used antibodies and dilutions are listed in the Nature Portfolio Reporting Summary. For analyzing DNA synthesis, the Molecular Probes Click-iT EdU Alexa Fluor 555 kit was used 24 h after EdU incorporation with DAPI counterstaining. SA-β-Gal staining of cells was performed in cell culture dishes (cells) or tissue culture chambers (organoids) after fixation with 0.5% glutaraldehyde as described above. Human cultures were incubated with X-Gal solution at pH 6.0 for ~4 h. […] Positive cells were quantified using ImageJ version 1.53a software. The analysis of mitosis was performed with an LSM800 Airyscan (Zeiss) microscope (ZEN version 3.0 software). An Airyscan autofilter processing was applied before image analysis.

p38α = p38α (Homo sapiens, UniProt Q16539); assay: target residence time (TRT) fluorescence polarization jump-dilution assay; type: binding
p38α, sequence (Q16539 whole entry): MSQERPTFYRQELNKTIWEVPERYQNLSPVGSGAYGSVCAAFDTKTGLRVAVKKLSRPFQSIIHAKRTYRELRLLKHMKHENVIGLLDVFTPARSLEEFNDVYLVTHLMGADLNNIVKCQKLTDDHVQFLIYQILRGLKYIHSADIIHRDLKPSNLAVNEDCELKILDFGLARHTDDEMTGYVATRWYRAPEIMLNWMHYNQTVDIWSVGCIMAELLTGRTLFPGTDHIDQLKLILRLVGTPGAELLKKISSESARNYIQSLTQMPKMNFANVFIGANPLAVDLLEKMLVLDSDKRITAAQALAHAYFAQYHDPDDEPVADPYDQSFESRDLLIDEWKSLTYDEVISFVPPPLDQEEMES
Method: TRTs were determined using a fluorescence polarization assay kit (Transcreener ADP, BellBrook Labs)[29]. […] The formed complex was ‘jump-diluted’ 1:100 (0.5 µl in 49.5 µl) in a 96-half-area-well plate with ATF2 (82 μM), ATP (40 μM) and ADP as the kinase assay detection reagents. The plate was measured every 3 min for 4 h. Fluorescence polarization was detected using the plate reader VictorNivo (PerkinElmer). The data were analyzed using the integrated rate equation in GraphPad Prism version 7.03 software. The residence time was calculated from the reciprocal value of koff.

PDO11 = assay: cell viability in patient-derived CRC organoids PDO11; type: cell-based, human
Method: (§1) For in vitro treatment studies, organoids were mechanically dissociated and digested using TrypLE supplemented with 100 µg ml^−1 DNaseI and 10.5 µM Y-27632 dihydrochloride (Invitrogen) at 37 °C. A total of 1,000–2,000 single cells were plated per well in white 96-well plates (Greiner) in culture medium containing 10% GFR Matrigel or Cultrex BME. The treatment with doxycycline (5 µg ml^−1), pharmacological inhibitors or corresponding volumes of DMSO was started 24 h after plating. Doxycycline was obtained from Sigma-Aldrich. […] Cell viability was measured by means of CellTiter-Glo 3D or CellTiter-Glo 2.0 reagent (Promega) according to the manufacturers’ instructions and the Infinite M Plex reader (Tecan, i-control version 3.9.1 software). Results were normalized to vehicle (DMSO) or to shNC. For cell-doubling assays, the cell number was quantified at the corresponding time points using Guava EasyCyte flow cytometer (Luminex, CytoSoft v5.2 software).

KAP^2D cells [2] = assay: EdU incorporation in KAP^2D cells; type: cell-based, mouse; details: replicates, experiment and repetition
Method: Immunofluorescence staining on cells and organoids was performed on glass coverslips or tissue culture chambers (Sarstedt). Organoids were plated in medium containing 10% Matrigel or Cultrex BME. The cultures were fixed with 4% paraformaldehyde and stained with specific antibodies and DAPI (Vector Labs). All used antibodies and dilutions are listed in the Nature Portfolio Reporting Summary. For analyzing DNA synthesis, the Molecular Probes Click-iT EdU Alexa Fluor 555 kit was used 24 h after EdU incorporation with DAPI counterstaining. SA-β-Gal staining of cells was performed in cell culture dishes (cells) or tissue culture chambers (organoids) after fixation with 0.5% glutaraldehyde as described above. Human cultures were incubated with X-Gal solution at pH 6.0 for ~4 h.

HCT-15 = assay: cell viability in human CRC cell line HCT-15; type: cell-based; details: for HCT-15 Cell viability (%): 4 d
Method: To generate KAP^2D cells, KAP organoids were isolated from Matrigel, fragmented by mechanical dissociation and plated without any extracellular matrix on common cell culture dishes. Phoenix-Eco packaging cells (CRL-3214), HCT-15 (CCL-225), HCT 116 (CCL-247), COLO 205 (CCL-222), LS 174T (CL-188), RKO (CRL-2577) and HT-29 (HTB-38) were obtained from the American Type Culture Collection. The cells were cultured at 37 °C and 7% CO2 with RPMI (KAP^2D cells) or DMEM (other cell lines), supplemented with 10% FBS and penicillin–streptomycin. KAP^2D cells were authenticated using PCR (Kras locus and Trp53 locus). Phoenix-Eco packaging cells and HCT-15, HCT 116, COLO 205, LS 174T, RKO and HT-29 cells were authenticated by the provider using short tandem repeat profiling. No commonly misidentified cell lines were used. Mycoplasma contamination was excluded by a PCR-based analysis.
as §1

PDO7 = assay: cell viability in patient-derived CRC organoids PDO7; type: cell-based, human
Method: as §1

subcutaneous KAP CRCs = assay: treatment of subcutaneous KAP tumors in wild-type mice; type: in vivo, mouse; details: Fig. 1j, individual tumors
Method: Subcutaneous injection, splenic seeding or cecum injection of organoids was performed in 8–10-week-old C57BL/6 N/Crl, Rag2^−/− (B6.Cg-Rag2^tm1.1Cgn/J), or CB17 Scid beige (CB17.Cg-Prkdc^scidLyst^bg-J/Crl) mice, obtained from Charles River. The organoids were dissociated into single cells, washed with PBS and injected in a 1:1 mixture of PBS and Matrigel. For murine organoids, 1 × 10^5 cells were injected into the left and right flanks or the spleen capsule and 2 × 10^6 cells were injected into the cecum wall. For human organoids, 4 × 10^5 cells were injected into the flanks of CB17 Scid beige mice. For splenic seeding and cecum injection, mice were anaesthetized using ketamine (100 mg kg^−1, intraperitoneally) and xylazin (10 mg/kg, intraperitoneally) in NaCl and a small laparotomy below the thorax was performed.
No mice were excluded during treatment studies.

PDO6 = assay: cell viability in patient-derived CRC organoids PDO6; type: cell-based, human
Method: as §1

KAP^2D cells [3] = assay: annexin V apoptosis analysis in KAP^2D cells; type: cell-based, mouse; details: Fig. 5a
Method: Apoptosis was analyzed with the FITC annexin V apoptosis detection kit (Biolegend). Both measurements were performed with FACS Canto II (BD) and physical parameters were used to exclude cell debris and cell doublets.

## O=C1c2ccc(Nc3ccc(F)cc3F)cc2CCc2ccc(OC[C@H](O)CO)cc21 [SKL, skepinone-L, reference compound]
KAP^2D cells [1]; Fig. 4f
  Anaphase, % (of fully P-H3S10+ cells): 10.84% and 8.57% and 15.15% and 12.31% and 9.21% and 11.59%
  Metaphase, % (of fully P-H3S10+ cells): 25.30% and 20.00% and 30.30% and 29.23% and 25.00% and 27.54%
  Multipolar mitosis, % (of fully P-H3S10+ cells): 3.61% and 2.86% and 6.06% and 3.08% and 3.95% and 8.70%
  Telophase, % (of fully P-H3S10+ cells): 8.43% and 9.52% and 12.12% and 10.77% and 13.16% and 15.94%
KAP^2D cells [1]; Fig. 4d
  P-H3S10+ cells, fully positive: 4.75% and 6.25% and 2.15% and 4.12% and 5.03% and 3.69%
  P-H3S10+ cells, partially positive: 6.47% and 7.85% and 5.54% and 6.84% and 8.15%
p38α; Fig. 2e, replicates
  TRT: 88.3 s and 94.8 s and 81.2 s
p38α; reciprocal of koff
  TRT: 88 s
PDO11; Homo sapiens, 96 h, read-out: Cell viability (%), PDO11, 0.5 µM, 4 d
  viability at 0.5 µM: 105%
PDO11; PDO11, 0.5 µM, 4 d, 0.5 µM
  Cell viability (%): 108.79% and 91.94%
PDO11; PDO11, 1 µM, 4 days, 1 µM
  Cell viability (%): 107.20% and 119.15% and 97.40%
KAP^2D cells [2]; Fig. 4j
  EdU+ cells: 82.79% and 86.90% and 76.55% and 79.03% and 85.67% and 83.92% and 75.07% and 81.04%
KAP^2D cells [2]; Fig. 5b
  EdU+ cells: 71.09% and 73.09% and 75.56% and 76.21% and 80.69% and 80.64% and 67.57% and 64.28%
HCT-15; 0.0137 µM
  HCT-15 Cell viability (%): 94.63% and 95.15% and 88.92% and 87.12% and 85.20%
HCT-15; 0.0412 µM
  HCT-15 Cell viability (%): 84.33% and 79.97% and 95.82% and 93.07% and 94.19%
HCT-15; 0.1235 µM
  HCT-15 Cell viability (%): 87.23% and 83.60% and 94.86% and 91.54% and 91.68%
HCT-15; 0.3704 µM
  HCT-15 Cell viability (%): 89.64% and 87.65% and 88.79% and 84.50% and 86.12%
HCT-15; 1.1111 µM
  HCT-15 Cell viability (%): 86.80% and 87.17% and 87.53% and 83.96% and 84.00%
HCT-15; 3.3333 µM
  HCT-15 Cell viability (%): 78.50% and 80.56% and 79.62% and 74.15% and 75.97%
HCT-15; 10.0000 µM
  HCT-15 Cell viability (%): 48.74% and 48.84% and 48.80% and 46.08% and 47.66%
HCT-15; Homo sapiens, HCT-15, 96 h, read-out: HCT-15 Cell viability (%), 0.0137 µM, 4 d
  viability at 0.0137 µM: 96.7%
HCT-15; Homo sapiens, HCT-15, 96 h, read-out: HCT-15 Cell viability (%), 0.0412 µM, 4 d
  viability at 0.0412 µM: 83.9%
HCT-15; Homo sapiens, HCT-15, 96 h, read-out: HCT-15 Cell viability (%), 0.1235 µM, 4 d
  viability at 0.1235 µM: 87.5%
HCT-15; Homo sapiens, HCT-15, 96 h, read-out: HCT-15 Cell viability (%), 0.3704 µM, 4 d
  viability at 0.3704 µM: 93.1%
HCT-15; Homo sapiens, HCT-15, 96 h, read-out: HCT-15 Cell viability (%), 1.1111 µM, 4 d
  viability at 1.1111 µM: 93.5%
HCT-15; Homo sapiens, HCT-15, 96 h, read-out: HCT-15 Cell viability (%), 3.3333 µM, 4 d
  viability at 3.3333 µM: 76.4%
HCT-15; Homo sapiens, HCT-15, 96 h, read-out: HCT-15 Cell viability (%), 10.0000 µM, 4 d
  viability at 10 µM: 49.5%
PDO7; Homo sapiens, 96 h, read-out: Cell viability (%), PDO7, 0.5 µM, 4 d
  viability at 0.5 µM: 82.8%
PDO7; Homo sapiens, 96 h, read-out: Cell viability (%), PDO7, 1 µM, 4 days
  viability at 1 µM: 96.8%
PDO7; PDO7, 0.5 µM, 4 d, 0.5 µM
  Cell viability (%): 101.04% and 90.15%
PDO7; PDO7, 1 µM, 4 days, 1 µM
  Cell viability (%): 99.67% and 101.17%
Subcutaneous KAP CRCs; day 0 of treatment
  Tumor volume (mm³): 32.0 mm³ and 62.5 mm³ (2×) and 64.0 mm³ and 75.0 mm³ and 31.5 mm³ and 56.0 mm³ (3×) and 40.0 mm³
Subcutaneous KAP CRCs; day 2 of treatment
  Tumor volume (mm³): 56.0 mm³ and 100.0 mm³ and 75.0 mm³ and 108.0 mm³ and 36.0 mm³ and 62.5 mm³ and 64.0 mm³ (3×) and 48.0 mm³
Subcutaneous KAP CRCs; day 4 of treatment
  Tumor volume (mm³): 100.0 mm³ and 108.0 mm³ and 87.5 mm³ and 126.0 mm³ and 48.0 mm³ and 75.0 mm³ (4×) and 56.0 mm³
Subcutaneous KAP CRCs; day 6 of treatment
  Tumor volume (mm³): 100.0 mm³ (2×) and 112.5 mm³ and 171.5 mm³ and 144.0 mm³ and 56.0 mm³ and 75.0 mm³ (2×) and 108.0 mm³ and 62.5 mm³
Subcutaneous KAP CRCs; day 8 of treatment
  Tumor volume (mm³): 144.0 mm³ and 180.0 mm³ (2×) and 162.0 mm³ and 72.0 mm³ and 108.0 mm³ and 126.0 mm³ and 87.5 mm³ and 112.5 mm³ (2×)
Subcutaneous KAP CRCs; day 10 of treatment
  Tumor volume (mm³): 180.0 mm³ (2×) and 245.0 mm³ and 171.5 mm³ and 112.5 mm³ and 126.0 mm³ (3×) and 144.0 mm³ and 108.0 mm³
Subcutaneous KAP CRCs; day 12 of treatment
  Tumor volume (mm³): 245.0 mm³ and 320.0 mm³ and 196.0 mm³ (3×) and 125.0 mm³ and 171.5 mm³ (2×) and 162.0 mm³ and 144.0 mm³
PDO6; Homo sapiens, 96 h, read-out: Cell viability (%), PDO6, 1 µM, 4 days
  viability at 1 µM: 112%
PDO6; PDO6, 0.5 µM, 4 d, 0.5 µM
  Cell viability (%): 101.15% and 118.77% and 80.46%
PDO6; PDO6, 1 µM, 4 days, 1 µM
  Cell viability (%): 110.32% and 93.07%
KAP^2D cells [3]; 1 d of treatment
  Annexin V+ cells: 5.21% and 5.26% and 4.63% and 7.96% and 7.76% and 8.93%
KAP^2D cells [3]; 2 d of treatment
  Annexin V+ cells: 9.26% and 10.60% and 6.13% and 6.98% and 6.69% and 8.97%
KAP^2D cells [3]; 3 d of treatment
  Annexin V+ cells: 12.30% and 9.65% and 9.21% and 7.99% and 8.10%
KAP^2D cells [3]; 4 d of treatment
  Annexin V+ cells: 14.90% and 13.30% and 12.30% and 11.90% and 13.00% and 16.60%
